The NIST ThermoML archive (doi:10.1021/je0604481)

Experiment: mn = molality of the nth substance listed, in mol/kg
Settings: Liquid; for mass density: Constant-volume piezometry; for viscosity: Capillary tube (Ostwald / Ubbelohde) method

O=S(=O)([O-])[O-].[Mg+2] [magnesium sulfate] + O
Settings | mass density [kg/m3] | viscosity [mPa·s]
288.57 K, 101 kPa, m1 = 2.224 | 1235.34 | –
288.57 K, 101 kPa, m1 = 2.535 | 1263.36 | –
291.15 K, 101 kPa, m1 = 0.084 | 1008.8 | –
297.7 K, 101 kPa, m1 = 2.224 | 1231.87 | –
297.7 K, 101 kPa, m1 = 2.535 | 1259.83 | –
298.15 K, 100 kPa, m1 = 0.085 | – | 0.9407
298.15 K, 100 kPa, m1 = 0.255 | – | 1.055
298.15 K, 100 kPa, m1 = 0.437 | – | 1.184
298.15 K, 100 kPa, m1 = 0.722 | – | 1.442
298.15 K, 100 kPa, m1 = 0.923 | – | 1.651
298.15 K, 100 kPa, m1 = 1.824 | – | 3.137
298.15 K, 100 kPa, m1 = 2.291 | – | 4.414
298.15 K, 100 kPa, m1 = 2.623 | – | 5.789
298.15 K, 10000 kPa, m1 = 0.085 | – | 0.94
298.15 K, 10000 kPa, m1 = 0.255 | – | 1.054
298.15 K, 10000 kPa, m1 = 0.437 | – | 1.184
298.15 K, 10000 kPa, m1 = 0.722 | – | 1.443
298.15 K, 10000 kPa, m1 = 0.923 | – | 1.653
298.15 K, 10000 kPa, m1 = 1.824 | – | 3.138
298.15 K, 10000 kPa, m1 = 2.291 | – | 4.415
298.15 K, 10000 kPa, m1 = 2.623 | – | 5.79
298.15 K, 30000 kPa, m1 = 0.085 | – | 0.9415
298.15 K, 30000 kPa, m1 = 0.255 | – | 1.056
298.15 K, 30000 kPa, m1 = 0.437 | – | 1.185
298.15 K, 30000 kPa, m1 = 0.722 | – | 1.445
298.15 K, 30000 kPa, m1 = 0.923 | – | 1.655
298.15 K, 30000 kPa, m1 = 1.824 | – | 3.14
298.15 K, 30000 kPa, m1 = 2.291 | – | 4.417
298.15 K, 30000 kPa, m1 = 2.623 | – | 5.792
299.67 K, 2040 kPa, m1 = 2.224 | 1231.7 | –
299.67 K, 7179 kPa, m1 = 2.224 | 1233.3 | –
299.67 K, 16830 kPa, m1 = 2.224 | 1236.3 | –
299.67 K, 22550 kPa, m1 = 2.224 | 1238.2 | –
299.67 K, 29600 kPa, m1 = 2.224 | 1240.3 | –
303.03 K, 101 kPa, m1 = 0.469 | 1050.08 | –
303.15 K, 101 kPa, m1 = 0.841 | 1090.98 | –
308.15 K, 100 kPa, m1 = 0.085 | – | 0.761
308.15 K, 100 kPa, m1 = 0.255 | – | 0.8459
308.15 K, 100 kPa, m1 = 0.437 | – | 0.9437
308.15 K, 100 kPa, m1 = 0.722 | – | 1.151
308.15 K, 100 kPa, m1 = 0.923 | – | 1.305
308.15 K, 100 kPa, m1 = 1.824 | – | 2.415
308.15 K, 100 kPa, m1 = 2.291 | – | 3.374
308.15 K, 100 kPa, m1 = 2.623 | – | 4.352
308.15 K, 10000 kPa, m1 = 0.085 | – | 0.7618
308.15 K, 10000 kPa, m1 = 0.255 | – | 0.8466
308.15 K, 10000 kPa, m1 = 0.437 | – | 0.946
308.15 K, 10000 kPa, m1 = 0.722 | – | 1.153
308.15 K, 10000 kPa, m1 = 0.923 | – | 1.305
308.15 K, 10000 kPa, m1 = 1.824 | – | 2.418
308.15 K, 10000 kPa, m1 = 2.291 | – | 3.376
308.15 K, 10000 kPa, m1 = 2.623 | – | 4.355
308.15 K, 30000 kPa, m1 = 0.085 | – | 0.7645
308.15 K, 30000 kPa, m1 = 0.255 | – | 0.8495
308.15 K, 30000 kPa, m1 = 0.437 | – | 0.9486
